The target of series [1] is Tyrosine-protein kinase JAK1 (Homo sapiens, UniProt P23458). Nature of the series: Inhibition of GST-tagged JAK1 (unknown origin) using fluoresceinated peptide as substrate after 3 hrs by caliper assay.
Series [2] addresses T1, Tyrosine-protein kinase JAK3 (Homo sapiens, UniProt P52333).
T1 sequence (P52333 whole entry): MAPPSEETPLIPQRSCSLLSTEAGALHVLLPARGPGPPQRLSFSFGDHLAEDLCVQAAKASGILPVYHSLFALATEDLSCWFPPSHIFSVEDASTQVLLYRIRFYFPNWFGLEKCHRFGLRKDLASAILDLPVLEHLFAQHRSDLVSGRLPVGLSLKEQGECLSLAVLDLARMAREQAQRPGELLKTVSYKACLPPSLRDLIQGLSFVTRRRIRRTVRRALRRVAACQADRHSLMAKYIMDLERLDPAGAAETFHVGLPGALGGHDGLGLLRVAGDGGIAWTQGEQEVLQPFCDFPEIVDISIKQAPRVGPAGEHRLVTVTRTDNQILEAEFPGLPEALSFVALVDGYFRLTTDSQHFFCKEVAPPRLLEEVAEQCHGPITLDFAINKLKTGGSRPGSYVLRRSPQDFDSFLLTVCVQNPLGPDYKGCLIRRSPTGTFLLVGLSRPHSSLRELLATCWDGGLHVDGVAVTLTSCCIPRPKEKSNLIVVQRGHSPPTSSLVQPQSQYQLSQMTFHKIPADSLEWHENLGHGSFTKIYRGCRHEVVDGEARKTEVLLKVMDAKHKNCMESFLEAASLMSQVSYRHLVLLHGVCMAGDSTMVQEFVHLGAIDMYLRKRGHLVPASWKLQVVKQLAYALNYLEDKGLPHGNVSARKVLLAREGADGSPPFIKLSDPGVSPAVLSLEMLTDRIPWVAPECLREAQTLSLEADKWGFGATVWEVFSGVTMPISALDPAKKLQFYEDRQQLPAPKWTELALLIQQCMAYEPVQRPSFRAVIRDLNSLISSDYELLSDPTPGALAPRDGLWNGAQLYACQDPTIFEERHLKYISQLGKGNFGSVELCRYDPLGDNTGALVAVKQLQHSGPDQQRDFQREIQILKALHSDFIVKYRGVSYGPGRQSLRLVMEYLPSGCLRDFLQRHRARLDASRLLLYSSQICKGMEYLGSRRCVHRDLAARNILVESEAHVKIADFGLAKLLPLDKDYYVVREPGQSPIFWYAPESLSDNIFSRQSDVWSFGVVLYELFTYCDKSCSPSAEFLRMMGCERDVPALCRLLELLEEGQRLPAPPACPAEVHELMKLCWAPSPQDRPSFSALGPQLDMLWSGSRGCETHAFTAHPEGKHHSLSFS
As to the kind of experiment: Inhibition of JAK3 (unknown origin) using CSKtide as substrate after 30 mins in presence of [gamma32P]ATP by top-count liquid scintillation counting method.

For another series, the system named is Blood. As to the kind of experiment: Inhibition of IL2-induced IFNgamma production in human whole blood. It is filed as functional.
Series [3] has as its target T2, Tyrosine-protein kinase JAK2 (Homo sapiens, UniProt O60674). Nature of the series: Inhibition of GST-tagged JAK2 (unknown origin) using fluoresceinated peptide as substrate after 3 hrs by caliper assay.
The target in series [4] is Non-receptor tyrosine-protein kinase TYK2 (Homo sapiens, UniProt P29597). Nature of the series: Inhibition of His-tagged TYK2 (unknown origin) using fluoresceinated peptide as substrate after 3 hrs by caliper assay.
In the next series the test system is T-cell. Nature of the series: Inhibition of IL-2 induced cell proliferation in human PBMC derived T cells pretreated for 60 mins followed by IL-2 addition measured after 3 days by [3H]thymidine incorporation assay. It is filed as functional, cell-based.
Series [5] deals with T3, Tyrosine-protein kinase BTK (Homo sapiens, UniProt Q06187). As to the kind of experiment: Inhibition of full length human His-tagged BTK expressed in baculovirus expression system using GEEPLYWSFPAKKK-NH2 as substrate pretreated for 45 mins followed by ATP addition measured after 10 mins by topcount scintillation counting analysis.
The target in series [6] is Epidermal growth factor receptor (Homo sapiens, UniProt P00533). As to the kind of experiment: Inhibition of EGFR (unknown origin) by caliper assay.
Series [7] deals with T3, Tyrosine-protein kinase BTK. Nature of the series: Inhibition of full length human His-tagged BTK expressed in baculovirus expression system using GEEPLYWSFPAKKK-NH2 as substrate measured immediately in presence of ATP by topcount scintillation counting analysis.
For series [8] the target is unchanged. As to the kind of experiment: Time-dependent inhibition of full length human His-tagged BTK expressed in baculovirus expression system using GEEPLYWSFPAKKK-NH2 as substrate by topcount scintillation counting analysis.
Series [9] concerns the target T2, Tyrosine-protein kinase JAK2. Nature of the series: Inhibition of JAK2 in human TF1 cells assessed as reduction in EPO-induced STAT5A phosphorylation pretreated for 30 mins followed by EPO addition measured after 10 mins by ELISA. It is filed as cell-based. For orientation: In an ELISA, binding on a coated surface is turned into a signal by an enzyme label.
For series [10], the target named is T4, Tyrosine-protein kinase JAK3 (Homo sapiens) (UniProt P52333).
T4 sequence (whole entry): T1 sequence (P52333 whole entry)
Description: Time-dependent inhibition of JAK3 (unknown origin) using CSKtide as substrate in presence of [gamma32P]ATP by top-count liquid scintillation counting method

For series [11], the target named is Macrophage colony-stimulating factor 1 receptor (Homo sapiens, UniProt P07333). As to the kind of experiment: Inhibition of FMS (unknown origin) by caliper assay.
The target in another series is JAK3/JAK1 (Homo sapiens, UniProt P23458+P52333). Nature of the series: Inhibition of JAK1/JAK3 in human PBMC derived T cell assessed as reduction in IL2-induced STAT3 phosphorylation after 30 mins by ELISA. It is filed as protein-complex assay.
Series [12] is described as follows: Bioavailability in mouse. It is filed as ADME, organism-based. The note with it: in vivo.
The target of series [13] is T3, Tyrosine-protein kinase BTK. Nature of the series: Inhibition of full length human His-tagged BTK expressed in baculovirus expression system using GEEPLYWSFPAKKK-NH2 as substrate measured after 10 mins in presence of ATP by topcount scintillation counting analysis.
For series [14] the target is unchanged. Nature of the series: Inhibition of full length human His-tagged BTK expressed in baculovirus expression system using GEEPLYWSFPAKKK-NH2 as substrate pretreated for 15 mins followed by ATP addition measured after 10 mins by topcount scintillation counting analysis.
In another series the target is JAK1/TYK2 (Homo sapiens, UniProt P23458+P29597). As to the kind of experiment: Inhibition of JAK1/TYK2 in human PBMC derived T cell assessed as reduction in IFNa2a-induced STAT3 phosphorylation after 30 mins by ELISA. It is filed as protein-complex assay.
Series [15] deals with T3, Tyrosine-protein kinase BTK. As to the kind of experiment: Inhibition of BTK in goat anti-human IgM F(ab')2-stimulated human whole blood assessed as suppression of BCR-induced CD69 expression on B cells after 18 hrs by FACS analysis. Background: A flow cytometer gives signals particle by particle.
For series [16] the target is unchanged. As to the kind of experiment: Inhibition of full length human His-tagged BTK expressed in baculovirus expression system using GEEPLYWSFPAKKK-NH2 as substrate pretreated for 120 mins followed by ATP addition measured after 10 mins by topcount scintillation counting analysis.
In series [17] the target is T4, Tyrosine-protein kinase JAK3 (Homo sapiens). Nature of the series: Inhibition of JAK3 (unknown origin) using CSKtide as substrate pretreated measured after 30 mins in presence of [gamma32P]ATP by top-count liquid scintillation counting method.

The source made the active and inactive calls. No cut-off for these calls is given here.

Usually IC50 stands for the concentration at which inhibition is half-maximal. As usually defined, the EC50 is the concentration giving half of the maximal effect. As a reminder, the bioavailability is the share of a dose that reaches the circulation, judged against a reference dose that is usually intravenous. A high value points to much systemic uptake.

Sequence of Tyrosine-protein kinase JAK1 (P23458 whole entry): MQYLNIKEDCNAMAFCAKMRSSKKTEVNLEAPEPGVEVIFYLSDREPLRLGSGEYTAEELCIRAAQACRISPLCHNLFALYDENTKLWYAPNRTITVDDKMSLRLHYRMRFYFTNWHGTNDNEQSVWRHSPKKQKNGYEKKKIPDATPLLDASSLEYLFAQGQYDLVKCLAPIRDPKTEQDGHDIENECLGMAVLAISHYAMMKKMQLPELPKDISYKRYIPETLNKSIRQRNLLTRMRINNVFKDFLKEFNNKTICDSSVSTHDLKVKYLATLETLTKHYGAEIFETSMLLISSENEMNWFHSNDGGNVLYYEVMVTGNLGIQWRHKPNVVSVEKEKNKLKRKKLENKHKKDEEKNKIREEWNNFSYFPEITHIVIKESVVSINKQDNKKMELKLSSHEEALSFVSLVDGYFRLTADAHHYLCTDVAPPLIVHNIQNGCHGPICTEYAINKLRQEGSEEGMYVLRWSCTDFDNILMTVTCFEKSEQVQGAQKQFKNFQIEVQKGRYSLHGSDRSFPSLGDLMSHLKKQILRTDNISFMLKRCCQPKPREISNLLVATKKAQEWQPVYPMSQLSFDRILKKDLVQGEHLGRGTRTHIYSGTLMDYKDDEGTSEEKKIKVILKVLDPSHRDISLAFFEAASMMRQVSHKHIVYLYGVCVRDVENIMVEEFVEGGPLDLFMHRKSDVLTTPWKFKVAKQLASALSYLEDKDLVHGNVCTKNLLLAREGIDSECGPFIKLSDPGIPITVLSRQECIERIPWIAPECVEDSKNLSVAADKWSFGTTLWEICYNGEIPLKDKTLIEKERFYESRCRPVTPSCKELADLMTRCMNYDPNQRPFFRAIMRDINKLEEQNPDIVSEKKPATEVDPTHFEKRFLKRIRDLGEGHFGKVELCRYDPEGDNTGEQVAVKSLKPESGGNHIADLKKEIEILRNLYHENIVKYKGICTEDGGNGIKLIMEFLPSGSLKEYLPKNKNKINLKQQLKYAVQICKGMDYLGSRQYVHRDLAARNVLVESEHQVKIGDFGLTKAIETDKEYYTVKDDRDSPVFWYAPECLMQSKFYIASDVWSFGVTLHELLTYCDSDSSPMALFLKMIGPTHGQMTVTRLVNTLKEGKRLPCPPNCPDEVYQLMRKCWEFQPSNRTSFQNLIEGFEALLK
T3 sequence (Q06187 whole entry): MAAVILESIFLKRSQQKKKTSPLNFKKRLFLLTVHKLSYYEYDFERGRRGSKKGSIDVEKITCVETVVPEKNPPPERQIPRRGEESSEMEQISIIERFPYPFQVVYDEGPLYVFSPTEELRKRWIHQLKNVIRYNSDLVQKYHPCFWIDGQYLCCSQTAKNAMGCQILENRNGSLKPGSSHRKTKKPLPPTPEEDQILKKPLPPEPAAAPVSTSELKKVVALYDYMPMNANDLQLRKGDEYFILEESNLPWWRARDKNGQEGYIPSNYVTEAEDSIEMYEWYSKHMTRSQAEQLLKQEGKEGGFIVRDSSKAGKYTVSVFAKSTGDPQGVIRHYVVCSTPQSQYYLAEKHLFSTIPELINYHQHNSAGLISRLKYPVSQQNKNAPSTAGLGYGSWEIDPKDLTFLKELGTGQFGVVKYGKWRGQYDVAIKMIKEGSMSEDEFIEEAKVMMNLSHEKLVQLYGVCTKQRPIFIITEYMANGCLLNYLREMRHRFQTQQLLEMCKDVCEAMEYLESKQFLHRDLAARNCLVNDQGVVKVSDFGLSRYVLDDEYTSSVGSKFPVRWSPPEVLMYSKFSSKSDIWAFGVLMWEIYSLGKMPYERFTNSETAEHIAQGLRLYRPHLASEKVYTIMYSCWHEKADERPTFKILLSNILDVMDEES
Sequence of Non-receptor tyrosine-protein kinase TYK2 (P29597 whole entry): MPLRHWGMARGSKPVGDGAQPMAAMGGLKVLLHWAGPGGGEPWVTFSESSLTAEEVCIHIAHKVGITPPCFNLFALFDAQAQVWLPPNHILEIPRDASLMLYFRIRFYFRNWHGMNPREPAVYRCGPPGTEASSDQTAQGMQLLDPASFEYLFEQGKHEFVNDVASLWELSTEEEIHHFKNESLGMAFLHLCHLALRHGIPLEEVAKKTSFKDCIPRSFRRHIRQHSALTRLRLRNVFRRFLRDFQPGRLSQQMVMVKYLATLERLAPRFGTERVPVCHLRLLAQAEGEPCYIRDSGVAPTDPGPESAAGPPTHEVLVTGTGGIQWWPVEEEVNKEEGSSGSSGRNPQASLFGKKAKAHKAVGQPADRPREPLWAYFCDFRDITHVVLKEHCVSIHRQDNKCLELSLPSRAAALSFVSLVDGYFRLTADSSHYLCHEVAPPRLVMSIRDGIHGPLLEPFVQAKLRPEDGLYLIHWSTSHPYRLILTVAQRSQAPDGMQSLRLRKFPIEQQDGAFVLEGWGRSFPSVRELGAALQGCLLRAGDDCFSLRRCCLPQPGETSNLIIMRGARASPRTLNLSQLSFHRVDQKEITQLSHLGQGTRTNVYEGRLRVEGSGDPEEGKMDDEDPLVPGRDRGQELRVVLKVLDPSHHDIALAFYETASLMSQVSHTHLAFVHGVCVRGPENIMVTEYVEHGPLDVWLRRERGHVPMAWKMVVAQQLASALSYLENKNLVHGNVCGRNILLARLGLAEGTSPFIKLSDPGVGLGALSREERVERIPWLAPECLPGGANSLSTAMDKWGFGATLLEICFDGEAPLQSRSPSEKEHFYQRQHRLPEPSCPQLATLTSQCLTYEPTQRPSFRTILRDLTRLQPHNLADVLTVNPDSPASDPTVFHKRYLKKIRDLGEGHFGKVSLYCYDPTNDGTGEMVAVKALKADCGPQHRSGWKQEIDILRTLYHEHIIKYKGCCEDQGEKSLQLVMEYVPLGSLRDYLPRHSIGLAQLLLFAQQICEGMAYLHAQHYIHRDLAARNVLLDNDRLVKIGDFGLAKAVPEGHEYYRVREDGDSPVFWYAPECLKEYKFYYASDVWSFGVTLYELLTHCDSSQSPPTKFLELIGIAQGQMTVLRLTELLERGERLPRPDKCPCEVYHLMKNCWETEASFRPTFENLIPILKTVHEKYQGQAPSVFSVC
T2 sequence (O60674 whole entry): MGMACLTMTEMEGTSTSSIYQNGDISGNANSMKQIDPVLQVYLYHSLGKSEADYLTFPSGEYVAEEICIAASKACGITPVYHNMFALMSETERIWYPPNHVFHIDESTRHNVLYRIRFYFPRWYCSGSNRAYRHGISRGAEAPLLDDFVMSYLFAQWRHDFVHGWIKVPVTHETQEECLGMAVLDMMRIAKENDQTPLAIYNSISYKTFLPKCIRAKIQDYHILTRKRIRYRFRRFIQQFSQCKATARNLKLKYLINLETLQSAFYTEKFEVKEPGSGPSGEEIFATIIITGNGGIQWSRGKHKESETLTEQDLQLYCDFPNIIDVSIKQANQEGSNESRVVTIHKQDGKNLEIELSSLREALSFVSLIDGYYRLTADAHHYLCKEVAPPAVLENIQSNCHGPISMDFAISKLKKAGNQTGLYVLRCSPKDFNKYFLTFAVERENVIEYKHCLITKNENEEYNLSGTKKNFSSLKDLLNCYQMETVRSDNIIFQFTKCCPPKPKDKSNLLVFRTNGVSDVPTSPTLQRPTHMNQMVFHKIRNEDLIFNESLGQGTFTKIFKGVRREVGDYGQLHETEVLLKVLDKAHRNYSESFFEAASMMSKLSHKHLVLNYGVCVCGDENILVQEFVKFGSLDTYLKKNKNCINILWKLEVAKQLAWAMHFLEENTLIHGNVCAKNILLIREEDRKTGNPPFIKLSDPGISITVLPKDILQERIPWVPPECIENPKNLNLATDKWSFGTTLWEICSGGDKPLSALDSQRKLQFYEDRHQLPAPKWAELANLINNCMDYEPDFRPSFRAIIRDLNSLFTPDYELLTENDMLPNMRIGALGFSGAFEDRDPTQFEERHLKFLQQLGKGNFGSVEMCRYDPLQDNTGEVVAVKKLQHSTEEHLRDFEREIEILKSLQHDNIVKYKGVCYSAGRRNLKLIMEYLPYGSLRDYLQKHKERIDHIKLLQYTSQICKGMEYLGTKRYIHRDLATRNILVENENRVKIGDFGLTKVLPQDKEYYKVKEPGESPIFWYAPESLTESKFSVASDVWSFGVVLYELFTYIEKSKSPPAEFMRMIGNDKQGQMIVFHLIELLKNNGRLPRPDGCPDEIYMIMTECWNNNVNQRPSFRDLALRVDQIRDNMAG
Sequence of JAK3/JAK1 (P23458 whole entry, one chain of several): as the sequence (P23458 whole entry) above
Sequence of JAK1/TYK2 (P23458 whole entry): as above
Sequence of JAK1/TYK2 (P29597 whole entry): as the sequence (P29597 whole entry) above

Take `C=CC(=O)Nc1cccc(CNc2c(C(N)=O)cnn3cccc23)c1`: the IC50 in series [1] was 1.7 µM; in [2] it was 0.0013 µM; with Blood it was 2.3 µM; in series [3] it was over 2 µM; in [4] it was over 2 µM; in the series on T-cell, 0.055 µM.

As to `CN(C)/C=C(/C#N)C(=O)Nc1cccc(CNc2c(C(N)=O)cnn3cccc23)c1`, the IC50 in series [1] was over 2 µM; in [2], 0.942 µM; in [3] it was over 2 µM; in series [4], over 2 µM; with T-cell, 14.4 µM.

As to `C=CS(=O)(=O)Nc1cccc(CNc2c(C(N)=O)cnn3cccc23)c1`, the IC50 in series [1] was 0.974 µM; in series [2], 0.0035 µM; in series [3] it was 1.27 µM; in series [4] it was over 2 µM; in the series with T-cell it was 6.7 µM.

Consider `NC(=O)c1cnn2cc(-c3ccccc3)cc2c1NCc1ccccc1`, for which the IC50 in series [1] was determined as 0.214 µM; in series [2], 0.014 µM; in [3] it was 0.438 µM; in series [4], 0.118 µM.

With `C=CC(=O)Nc1cccc(CNc2cc(Nc3ccccc3)ncc2C(N)=O)c1`, the EC50 in series [5] was 2.89 µM; in [7], 19.8 µM; in series [14] it was 6.56 µM; in series [16], 1.58 µM. In addition, the concentration for half-maximal inhibition (IC50) in [6] was over 10 µM; in [1], 1.1 µM; in [2], under 0.001 µM; in the series with Blood, 0.49 µM; in [3], 1.3 µM; in series [4] it was over 5 µM. Moreover, the IC50 in series [9] was 11 µM; in the series on T-cell, 0.022 µM; in series [11] it was 0.18 µM; at JAK3/JAK1 it was 0.051 µM; in series [13] it was over 2.5 µM; at JAK1/TYK2 it was 4.9 µM. The IC50 in series [15] is over 10 µM. Also, the TDI result in [8] and in series [10] was “Active” each time. Moreover, in series [12], the bioavailability was under 30%.

Consider `CCC(=O)Nc1cccc(CNc2cc(Nc3ccccc3)ncc2C(N)=O)c1`, for which the IC50 in series [2] was 0.1 µM. For the same compound, in series [17], the inhibition entry was “Active”.

As for `NC(=O)c1cnn2cccc2c1NCc1cccc(NC(=O)Cn2sc3ccccc3c2=O)c1`, the 50% inhibitory concentration (IC50) in [1] was found to be 0.196 µM; in series [2] it was 0.03 µM; in [3] it was 0.745 µM; in series [4], 0.24 µM; with T-cell, 5.48 µM.

For the compound `C/C=C/C(=O)Nc1cccc(CNc2c(C(N)=O)cnn3cccc23)c1`, the 50% inhibitory concentration (IC50) in series [1] was 1.42 µM; in [2], 0.175 µM; in series [3] it was over 2 µM; in [4], over 2 µM; in the series with T-cell, 26.6 µM.

For `NC(=O)c1cnc(Nc2ccccc2)cc1NCc1ccccc1`, the half-inhibitory concentration (IC50) in series [1] turned out to be 0.219 µM; in [3], 0.203 µM; in series [4] it was 0.774 µM.

On to `N#CCC(=O)Nc1cccc(CNc2c(C(N)=O)cnn3cccc23)c1`, for which the concentration for half-maximal inhibition (IC50) in [1] was 0.264 µM; in series [2], 0.035 µM; in [3], 0.658 µM; in series [4] it was 2 µM; with T-cell it was 8.45 µM.

As for `NC(=O)c1cnn2cccc2c1NCc1cccc(NC(=O)COc2c(F)c(F)c(F)c(F)c2F)c1`, the half-maximal inhibitory concentration (IC50) in series [1] was over 2 µM; in series [2], 0.743 µM; in [3], over 2 µM; in series [4] it was over 2 µM; in the series with T-cell it was 15.4 µM.

Values taken from ChEMBL document CHEMBL4043231, “Discovery of highly potent, selective, covalent inhibitors of JAK3” (Bioorg Med Chem Lett, 2017).
